In patent US20220315967A1, “METHODS FOR PRODUCING D-TRYPTOPHAN AND SUBSTITUTED D-TRYPTOPHANS” (priority 2019, published 2022):
Where two headings read alike, the source gives them in different places.

Columns and labels:
IvoA-C = target: T1, IvoA-C (Emericella nidulans, UniProt C8V7P4); test: Thioesterase assay of standalone IvoA-C with synthetic thioester substrates; type: biochemical, Aspergillus nidulans; settings: pH 6.9, boiled enzyme control
T1 construct: were incubated with standalone IvoA C domain at pH 6.9; hexahistidine (His6) with TEV protease site (N); made in house; host or cells: E. coli BL21(DE3)
T1 sequence (C8V7P4 1325-1477): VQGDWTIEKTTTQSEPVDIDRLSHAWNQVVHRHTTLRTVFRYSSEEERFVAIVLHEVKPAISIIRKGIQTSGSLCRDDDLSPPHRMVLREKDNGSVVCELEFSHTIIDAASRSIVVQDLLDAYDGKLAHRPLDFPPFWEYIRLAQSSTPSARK
Protocol: FIG. 17 provides data and associated schematics for an In vitro assay of IvoA-C with synthetic thioester substrates. Synthetic thioester substrates (DL-tryptophan-S—N-acetylcysteamine, DL-Trp-SNAC: D-tryptophan-S-pantatheine, D-Trp-pant) were incubated with standalone IvoA C domain at pH 6.9. Enzymes were boiled to measure the nonenzymatic hydrolysis. Free tryptophan and tryptophanyl thioesters were separated by HPLC.
The thioesterase activity assay of standalone IvoA-C was performed in ammonium acetate buffer (20 mM, pH=6.9). Typically, 5 mM synthetic substrate (5% DMSO) was incubated with 50 μM enzyme. The reaction was analyzed by HPLC. Boiled enzyme was used as control to measure the background nonenzymatic hydrolysis.

IvoA A domain = target: T2, IvoA A domain (Emericella nidulans, UniProt C8V7P4, S785A); test: Hydroxylamine-based colorimetric adenylation assay; type: biochemical, Aspergillus nidulans
T2 construct: The full-length wild-type IvoA and mutants were expressed in S. cerevisiae JHY686 strain; octahistidine (His8) (N); made in house; host or cells: Saccharomyces cerevisiae JHY686
T2 sequence (C8V7P4 whole entry S785A): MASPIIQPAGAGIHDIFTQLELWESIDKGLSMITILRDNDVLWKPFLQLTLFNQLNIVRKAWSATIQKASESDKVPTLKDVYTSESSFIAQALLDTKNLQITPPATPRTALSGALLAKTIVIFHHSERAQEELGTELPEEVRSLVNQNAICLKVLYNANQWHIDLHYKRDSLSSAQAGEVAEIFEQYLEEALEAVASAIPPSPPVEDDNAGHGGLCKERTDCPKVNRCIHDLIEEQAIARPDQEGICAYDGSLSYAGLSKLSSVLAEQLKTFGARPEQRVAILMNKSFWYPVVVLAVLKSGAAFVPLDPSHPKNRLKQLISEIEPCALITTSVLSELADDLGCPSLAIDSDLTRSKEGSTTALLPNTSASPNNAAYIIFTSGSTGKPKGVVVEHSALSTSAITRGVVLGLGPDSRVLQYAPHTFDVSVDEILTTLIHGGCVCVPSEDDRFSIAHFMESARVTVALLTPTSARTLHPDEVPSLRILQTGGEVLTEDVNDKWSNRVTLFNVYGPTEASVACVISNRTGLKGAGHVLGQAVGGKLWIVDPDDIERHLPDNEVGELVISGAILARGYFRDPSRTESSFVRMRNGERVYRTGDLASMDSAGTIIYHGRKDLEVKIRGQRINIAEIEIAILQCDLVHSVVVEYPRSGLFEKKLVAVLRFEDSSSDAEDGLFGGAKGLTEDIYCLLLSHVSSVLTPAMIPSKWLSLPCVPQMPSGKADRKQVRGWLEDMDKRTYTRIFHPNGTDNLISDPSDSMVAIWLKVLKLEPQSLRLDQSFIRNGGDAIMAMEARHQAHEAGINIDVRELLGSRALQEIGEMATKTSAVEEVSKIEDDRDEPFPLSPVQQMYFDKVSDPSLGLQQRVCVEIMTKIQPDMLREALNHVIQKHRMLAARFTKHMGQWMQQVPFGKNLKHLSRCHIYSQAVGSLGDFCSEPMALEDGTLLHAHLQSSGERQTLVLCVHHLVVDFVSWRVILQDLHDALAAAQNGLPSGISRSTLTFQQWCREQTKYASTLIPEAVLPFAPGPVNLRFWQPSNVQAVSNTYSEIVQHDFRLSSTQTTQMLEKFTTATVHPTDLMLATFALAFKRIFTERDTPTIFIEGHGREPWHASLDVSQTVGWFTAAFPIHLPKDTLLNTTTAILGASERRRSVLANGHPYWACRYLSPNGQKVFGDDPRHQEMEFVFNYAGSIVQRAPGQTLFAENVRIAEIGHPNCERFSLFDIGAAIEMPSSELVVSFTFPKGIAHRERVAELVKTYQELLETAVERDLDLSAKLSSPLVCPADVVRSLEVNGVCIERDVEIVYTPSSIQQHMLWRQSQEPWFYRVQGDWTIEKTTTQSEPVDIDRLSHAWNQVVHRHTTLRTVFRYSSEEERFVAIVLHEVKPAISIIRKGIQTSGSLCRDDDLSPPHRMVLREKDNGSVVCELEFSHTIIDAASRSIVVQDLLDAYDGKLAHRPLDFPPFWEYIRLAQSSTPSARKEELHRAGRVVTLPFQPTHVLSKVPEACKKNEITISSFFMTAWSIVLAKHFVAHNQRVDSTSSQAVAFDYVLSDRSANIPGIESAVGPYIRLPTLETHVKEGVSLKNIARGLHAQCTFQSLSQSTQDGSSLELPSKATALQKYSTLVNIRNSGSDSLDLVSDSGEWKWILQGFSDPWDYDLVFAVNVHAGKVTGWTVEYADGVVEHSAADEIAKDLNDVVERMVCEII
Protocol: FIG. 9 provides data showing Hydroxylamine-based colorimetric assay for studying substrate specificity of IvoA A domain. The reaction condition is 2 μM of IvoA-T^0+3 mM of ATP+0.1 mM of carboxylic acid substrate+15 mM hydroxylamine+15 mM MgCl2 in Tris buffer (pH 8.0). The reaction is quenched after 3 hrs by addition of equivalent volume (150 μL) of stopping solution (10% (w/v) FeCl3.H2O and 3.3% (w/v) trichloroacetic acid dissolved in 0.7 M HCl). The precipitated enzyme was removed by centrifugation and the supernatant was measured for its absorbance at 540 nm.
FIG. 19 provides data showing Adenylation assay of IvoA A domain with substituted tryptophan amino acids. The reaction was performed similarly according to the assay described in the caption of FIG. 9.

IvoA = target: T3, IvoA (Emericella nidulans, UniProt C8V7P4); test: Biocatalytic stereoinversion or deracemization of tryptophan and substituted tryptophans by IvoA (chiral-HPLC); type: biochemical, Aspergillus nidulans; settings: for ee (%): ee of D-enantiomer, 1.5 mM substrates, 5 μM IvoA, 5 mM ATP, 10 mM MgCl2, 100 mM K2HPO4 buffer, pH 7.5
T3 construct: The full-length wild-type IvoA and mutants were expressed in S. cerevisiae JHY686 strain; octahistidine (His8) (N); made in house; host or cells: Saccharomyces cerevisiae JHY686
T3 sequence (C8V7P4 other isoform, or with tags, fused parts or gaps): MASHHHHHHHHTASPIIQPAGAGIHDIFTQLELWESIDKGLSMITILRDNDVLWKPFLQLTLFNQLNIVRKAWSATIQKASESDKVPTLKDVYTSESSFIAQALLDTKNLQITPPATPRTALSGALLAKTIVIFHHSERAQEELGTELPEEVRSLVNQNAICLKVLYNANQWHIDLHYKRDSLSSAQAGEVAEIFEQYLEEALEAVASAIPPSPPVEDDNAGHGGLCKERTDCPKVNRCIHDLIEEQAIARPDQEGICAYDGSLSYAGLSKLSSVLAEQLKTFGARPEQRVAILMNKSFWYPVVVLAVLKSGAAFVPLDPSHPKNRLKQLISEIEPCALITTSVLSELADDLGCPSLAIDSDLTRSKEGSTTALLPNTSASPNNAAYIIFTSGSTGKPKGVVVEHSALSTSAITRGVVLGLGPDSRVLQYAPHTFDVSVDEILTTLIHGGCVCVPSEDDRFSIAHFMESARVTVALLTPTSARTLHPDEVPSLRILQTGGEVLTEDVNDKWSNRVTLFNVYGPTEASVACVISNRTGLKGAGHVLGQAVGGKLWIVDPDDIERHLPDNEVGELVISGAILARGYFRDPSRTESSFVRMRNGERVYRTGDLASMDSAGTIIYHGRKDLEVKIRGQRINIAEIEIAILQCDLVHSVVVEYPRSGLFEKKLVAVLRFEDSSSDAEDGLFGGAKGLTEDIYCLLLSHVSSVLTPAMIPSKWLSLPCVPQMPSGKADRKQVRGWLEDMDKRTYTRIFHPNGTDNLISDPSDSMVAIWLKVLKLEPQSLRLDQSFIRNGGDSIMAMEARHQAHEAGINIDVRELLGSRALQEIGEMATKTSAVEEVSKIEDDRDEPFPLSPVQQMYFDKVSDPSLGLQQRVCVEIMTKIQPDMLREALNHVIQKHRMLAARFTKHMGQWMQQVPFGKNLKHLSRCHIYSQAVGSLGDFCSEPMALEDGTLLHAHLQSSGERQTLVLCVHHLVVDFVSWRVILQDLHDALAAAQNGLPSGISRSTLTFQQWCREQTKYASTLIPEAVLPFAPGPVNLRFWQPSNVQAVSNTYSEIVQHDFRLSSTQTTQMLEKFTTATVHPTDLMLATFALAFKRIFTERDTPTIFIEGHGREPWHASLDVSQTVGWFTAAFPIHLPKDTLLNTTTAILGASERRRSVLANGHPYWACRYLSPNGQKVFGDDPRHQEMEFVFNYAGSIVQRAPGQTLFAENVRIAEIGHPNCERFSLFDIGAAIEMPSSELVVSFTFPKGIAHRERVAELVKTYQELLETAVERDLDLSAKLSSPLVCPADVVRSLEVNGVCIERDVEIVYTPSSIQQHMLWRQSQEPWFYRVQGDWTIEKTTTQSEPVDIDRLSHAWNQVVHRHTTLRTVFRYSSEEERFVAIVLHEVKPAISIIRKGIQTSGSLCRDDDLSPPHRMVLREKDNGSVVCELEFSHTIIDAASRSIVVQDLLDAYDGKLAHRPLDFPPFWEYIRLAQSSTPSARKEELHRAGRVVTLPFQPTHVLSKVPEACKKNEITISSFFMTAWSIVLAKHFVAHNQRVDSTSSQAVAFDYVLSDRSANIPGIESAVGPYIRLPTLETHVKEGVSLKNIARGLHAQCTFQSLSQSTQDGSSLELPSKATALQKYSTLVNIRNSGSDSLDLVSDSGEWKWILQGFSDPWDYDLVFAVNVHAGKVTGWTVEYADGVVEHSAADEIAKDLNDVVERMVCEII
Protocol: […] The solvent was removed in vaccuo by speedvac and the residue was dissolved in ethanol and analyzed by chiral-HPLC by using a Crownpak® CR(+) column (150 mm×4 mm×3.5 μm, Daicel) at room temperature. The mobile phase was aq. HClO4 1% (w/v) supplemented with 15% (v/v) MeOH and the flow rate was 1.0 ml/min.

[1] = Apparent steady-state kinetics of L-tryptophan stereoinversion by IvoA and mutants (chiral-HPLC quantification of D-tryptophan); type: biochemical, Aspergillus nidulans; settings: for kcat^app / Km: L-tryptophan stereoinversion; for Km: read-out: Km^app
Protocol: FIG. 11 provides data showing the Apparent steady-state kinetics of IvoA catalyzed stereoinversion. […] The kinetic constants were shown in the main text. For WT, 1 μM enzyme was used in each assay and the reaction was quenched after 2 min. For E0 mutant, 10 μM enzyme was used in each assay and the reaction was quenched after 60 min. For C0 mutant, 50 μM enzyme was used in each assay and the reaction was quenched after 60 min.
Chiral-resolution allowed us to determine the apparent steady-state kinetics by quantifying D-tryptophan formation (Table 1, FIG. 11). […] Both E and C domains are catalytically important for IvoA, as inactivating either domain by mutating the catalytic histidine residues (H963A and H1428A) substantially compromised the apparent turnover number kcat (420-fold by E^0 while 4700-fold by C^0).
The ATP-dependent stereoinversion activity was typically performed with 2-5 μM IvoA, 1 mM L/D-tryptophan, 3 mM ATP and 10 mM MgCl2 in 100 mM phosphate buffer (pH 7.5), and the reaction was quenched by mixing with 5-volume of methanol. The solvent was removed in vaccuo by speedvac and the residue was dissolved in ethanol and analyzed by chiral-HPLC by using a Crownpak® CR(+) column (150 mm×4 mm×3.5 μm, Daicel) at room temperature. The mobile phase was aq. HClO4 1% (w/v) supplemented with 15% (v/v) MeOH and the flow rate was 1.0 ml/min.

[2] = enzyme >50 μM, overnight incubation
Protocol: The reaction condition is 100 μM of IvoA+2 mM of ATP+1 mM of L-tryptophan+1 mM of AcCoA+5 mM MgCl2 in phosphate buffer (pH 7.5).
Acetyltryptophan acetyltransferase activity was performed by incubating 1-100 μM IvoA with 1 mM D-tryptophan or other substrates with 1 mM acetyl-CoA or 1 mM acetyl-phosphate in 100 mM phosphate buffer (pH 7.5). The reaction mixture was incubated at room temperature and the reaction was quenched at different time interval by mixing with 5-fold volume of methanol. The mixture was clarified by centrifugation to remove protein and salts, and the supernatant was dried in vaccuo by using speedvac. The residue was dissolved in methanol and subjected to LC-MS analysis. For ATP-dependent acetyltransferase activity, 1 mM LD-tryptophan, 5 mM ATP, 1 mM CoA and 5 mM MgCl2 were used.

| Compound | ee (%) (IvoA) | other results |
| --- | --- | --- |
| CC(=O)NCCSC(=O)C(N)Cc1c[nH]c2ccccc12 (racemic) [DL-Trp-SNAC, DL-tryptophan-S—N-acetylcysteamine] |  | hydrolysis by IvoA-C versus nonenzymatic (IvoA-C): not good substrate |
| Cc1[nH]c2ccccc2c1CC(N)C(=O)O (racemic) [Entry 13, 2-Me-DL-tryptophan] | 1.3 | activation by A domain (IvoA A domain): inefficient activation; conversion by IvoA / substrate quality (IvoA): No conversion |
| CC(C)(CO)[C@@H](O)C(=O)NCCC(=O)NCCSC(=O)[C@H](N)Cc1c[nH]c2ccccc12 [D-Trp-pant, D-tryptophan-S-pantatheine] |  | hydrolysis by IvoA-C versus nonenzymatic (IvoA-C): not good substrate |
| N[C@H](Cc1c[nH]c2ccccc12)C(=O)O [D-tryptophan] |  | conversion by IvoA / substrate quality (IvoA): cannot convert |
| N[C@@H](Cc1c[nH]c2ccccc12)C(=O)O [Entry 1, L-tryptophan] | >99 | activation by A domain (IvoA A domain): preferred substrate; time to complete conversion of L-tryptophan to D-tryptophan (IvoA; 1 mM L-tryptophan, chiral-HPLC): 3 h |
| COc1ccc2[nH]cc(C[C@H](N)C(=O)O)c2c1 [Entry 2, 5-OMe-L-tryptophan] | >99 |  |
| N#Cc1ccc2[nH]cc(CC(N)C(=O)O)c2c1 (stereo not shown) [Entry 3] | 63 | conversion by IvoA / substrate quality (IvoA): poor substrates |
| NC(Cc1c[nH]c2ccc([N+](=O)[O-])cc12)C(=O)O (stereo not shown) [Entry 4] | 44 | conversion by IvoA / substrate quality (IvoA): poor substrates |
| NC(Cc1c[nH]c2cccc(F)c12)C(=O)O (stereo not shown) [Entry 5] | >99 |  |
| NC(Cc1c[nH]c2ccc(F)cc12)C(=O)O (stereo not shown) [Entry 6] | >99 |  |
| NC(Cc1c[nH]c2cc(F)ccc12)C(=O)O (stereo not shown) [Entry 7] | >99 |  |
| NC(Cc1c[nH]c2ccc(Cl)cc12)C(=O)O (stereo not shown) [Entry 8] | >99 |  |
| NC(Cc1c[nH]c2cc(Cl)ccc12)C(=O)O (stereo not shown) [Entry 9] | 98 |  |
| NC(Cc1c[nH]c2ccc(Br)cc12)C(=O)O (stereo not shown) [Entry 10] | >99 |  |
| NC(Cc1c[nH]c2cc(Br)ccc12)C(=O)O (stereo not shown) [Entry 11] | 75 | conversion by IvoA / substrate quality (IvoA): poor substrates |
| NC(Cc1c[nH]c2c(Br)cccc12)C(=O)O (stereo not shown) [Entry 12] | 87 | conversion by IvoA / substrate quality (IvoA): poor substrates |
| Cc1cccc2[nH]cc(CC(N)C(=O)O)c12 (stereo not shown) [Entry 14] | >99 |  |
| Cc1ccc2[nH]cc(CC(N)C(=O)O)c2c1 (stereo not shown) [Entry 15] | >99 |  |
| Cc1ccc2c(CC(N)C(=O)O)c[nH]c2c1 (stereo not shown) [Entry 16] | 97 |  |
| Cc1cccc2c(CC(N)C(=O)O)c[nH]c12 (stereo not shown) [Entry 17] | >99 |  |
| WT: wild-type single-module nonribosomal peptide synthetase IvoA from Aspergillus nidulans |  | kcat^app [1]: 0.633 ± 0.05 s⁻¹; kcat^app ([1]; listed as IvoA): 0.633 s⁻¹; Km ([1]; listed as IvoA): ~50 µM; Km [1]: 50 ± 10 µM; Ki ([1]; substrate inhibition by L-tryptophan, read-out: Ki^app (substrate inhibition)): 4 mM; kobs^app of N-acetyl-D-tryptophan formation [2]: < 0.1 h⁻¹ |
